Results from PubChem BioAssay AID1552 (Sanford-Burnham Center for Chemical Genomics, 2009).
Calls of active or inactive are those of the source. No rule for the calls is given here.

What follows are compounds tested against Ubiquitin-conjugating enzyme E2 N (Homo sapiens) (UniProt P61088) (assay: UBE2N binders by NMR, biophysical, purified protein (AID 1552)). Details: NMR binding to purified UBE2N.
Chain of Ubiquitin-conjugating enzyme E2 N (Homo sapiens) (P61088 whole entry, looked up): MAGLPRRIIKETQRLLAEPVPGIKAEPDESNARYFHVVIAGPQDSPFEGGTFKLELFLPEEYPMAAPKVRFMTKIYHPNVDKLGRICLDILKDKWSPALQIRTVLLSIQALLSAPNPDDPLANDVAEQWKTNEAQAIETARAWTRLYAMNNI
For `CC1(C)CN=C(Nc2nc3ccccc3s2)S1`, the Kd was > 4 mM (inactive).
In the case of `c1ccc2[nH]c(CCn3cncn3)nc2c1`, the Kd is reported as > 4 mM (inactive).
In the case of `CC(=O)Nc1nc(C)nc(-c2ccccc2)c1C(C)=O`, the Kd is reported as > 4 mM (inactive).
In the case of `O=C(O)CC[N+](=O)[O-]`, the Kd is reported as > 4 mM (inactive).
In the case of `O=C(O)c1sccc1-n1cccc1`, the Kd is reported as > 4 mM (inactive).
In the case of `O=S(=O)(Nc1ccc2c(c1)OCCO2)c1cccs1`, the Kd is reported as > 4 mM (inactive).
In the case of `O=c1c(O)c(-c2ccccc2)oc2ccccc12`, the Kd is reported as > 4 mM (inactive).
For `O=C1CC(C(=O)O)c2ccccc21` (stereo not given), the Kd was > 4 mM (inactive).
`COc1cc2c(cc1OC)[C@@H]1C(=O)c3ccc(OC)c(CC=C(C)C)c3O[C@@H]1CO2` was tested, and the Kd was > 4 mM (inactive).
In the case of `CC(=O)Nc1c(C)n(C)n(-c2ccccc2)c1=O`, the Kd is reported as > 4 mM (inactive).
With `C/C=C(\C)C(=O)O[C@@H]1c2c(ccc3ccc(=O)oc23)OC(C)(C)[C@@H]1OC(C)=O` the Kd was > 4 mM (inactive).
In the case of `NCCCCN=C(N)N`, the Kd is reported as > 4 mM (inactive).
`CN1CCC(N(C)C2CCN(C)CC2)CC1` was tested, and the Kd was > 4 mM (inactive).
With `O=C1OC(N2CCOCC2)c2ccccc21` (stereo not given) the Kd was > 4 mM (inactive).
`OC1CCN(C(=S)NC2CC2)CC1` was tested, and the Kd was > 4 mM (inactive).
For `Cc1cc(N2C(=O)CCC2=O)n(-c2ccccc2)n1`, the Kd was > 4 mM (inactive).
In the case of `CC(C)(C)C(=O)N1CCCC1C(=O)O` (stereo not given), the Kd is reported as > 4 mM (inactive).
For `O=C1NC(=S)N/C1=C/c1ccsc1`, the Kd was > 4 mM (inactive).
With `CCOC(=O)C1CCNCC1` the Kd was > 4 mM (inactive).
With `CC1NC(C(=O)O)Cc2c1[nH]c1ccccc21` (stereo not given) the Kd was > 4 mM (inactive).
`Nc1cncc(C(=O)O)c1` was tested, and the Kd was > 4 mM (inactive).
For `CC(O)c1nc2ccccc2[nH]1` (stereo not given), the Kd was > 4 mM (inactive).
`O=c1[nH]cc(NC(=S)N2CCOCC2)c(=O)[nH]1` was tested, and the Kd was > 4 mM (inactive).
With `Cc1cc(C)n(-c2nncn2N)n1` the Kd was > 4 mM (inactive).
`O=C(O)c1ccc(-n2cncn2)cc1` was tested, and the Kd was > 4 mM (inactive).
`COC(=O)c1[nH]c2ccccc2c1C(=O)OC` was tested, and the Kd was > 4 mM (inactive).
`CCOC(=O)c1[nH]c(C)cc1C` was tested, and the Kd was > 4 mM (inactive).
For `Cc1nc(-c2cccc(-c3noc(C)n3)c2)no1`, the Kd was > 4 mM (inactive).
In the case of `CC1(C)C=Cc2cc3ccc(=O)oc3cc2O1`, the Kd is reported as > 4 mM (inactive).
`CC(CCC(=O)O)[C@H]1CCC2C3CC[C@@H]4C[C@H](O)CC[C@]4(C)C3C[C@H](O)[C@@]21C` (stereo not given in full) was tested, and the Kd was > 4 mM (inactive).
With `Cc1cc(C(=O)N2CCC3(CC2)OCCO3)cs1` the Kd was > 4 mM (inactive).
In the case of `NC(=O)c1cc(N)ccc1N1CCCCC1`, the Kd is reported as > 4 mM (inactive).
For `Cc1cc2nc3c(=O)[nH]c(=O)nc-3n(CC(O)C(O)C(O)CO)c2cc1C` (stereo not given), the Kd was > 4 mM (inactive).
In the case of `O=c1c2c(nc3nc(COc4ccccc4)[nH]n13)CCC2`, the Kd is reported as > 4 mM (inactive).
With `Cc1nnc(NCCO)[nH]c1=O` the Kd was > 4 mM (inactive).
For `CCCNC(CC(=O)Nc1cccnc1)C(=O)O` (stereo not given), the Kd was > 4 mM (inactive).
With `O=C(NC(=S)NCCO)c1ccccc1` the Kd was > 4 mM (inactive).
For `O=c1cnnc(NCc2ccc(F)cc2)[nH]1`, the Kd was > 4 mM (inactive).
`COC(=O)C1=CO[C@@H](O[C@@H]2O[C@H](CO)[C@@H](O)[C@H](O)[C@H]2O)[C@@H]2[C@@H](C)[C@@H](O)C[C@H]12` was tested, and the Kd was > 4 mM (inactive).
For `Cc1ccccc1NC(=O)C1CCC(=O)N1` (stereo not given), the Kd was > 4 mM (inactive).
In the case of `NC(=O)Nc1cccc(C(F)(F)F)c1`, the Kd is reported as > 4 mM (inactive).
`Cc1ccc(C)n1NC(=O)c1cccs1` was tested, and the Kd was > 4 mM (inactive).
With `c1cncc(C(N2CCOCC2)N2CCOCC2)c1` the Kd was > 4 mM (inactive).
In the case of `O=C(NC1CCS(=O)(=O)C1)C1CCCCC1` (stereo not given), the Kd is reported as > 4 mM (inactive).
For `COc1cccc2c1CCC1=CC(=O)CC[C@@]12C`, the Kd was > 4 mM (inactive).
`O=C(O)CCC(=O)Nc1nccs1` was tested, and the Kd was > 4 mM (inactive).
In the case of `Cc1ccccc1N1C(=O)CC(=O)NC1=O`, the Kd is reported as > 4 mM (inactive).
In the case of `CNC(=O)c1ccccc1-c1ccccc1`, the Kd is reported as > 4 mM (inactive).
For `CCCCCc1c2c(cc(O)c1C(=O)O)OC(=O)c1c(cc(OC)cc1C(=O)CCCC)O2`, the Kd was > 4 mM (inactive).
`S=c1nc(Cc2ccccc2)[nH][nH]1` was tested, and the Kd was > 4 mM (inactive).
`Cc1cc(C)nc(/N=C(\N)N2CCc3ccccc32)n1` was tested, and the Kd was > 4 mM (inactive).
For `Nc1nnc(SCc2ccc(F)cc2Cl)s1`, the Kd was > 4 mM (inactive).
In the case of `CCn1c(=O)cc(N2CCC3(CC2)OCCO3)[nH]c1=O`, the Kd is reported as > 4 mM (inactive).
For `O=c1cc(O)n(-c2ccc(F)cc2)c(=S)[nH]1`, the Kd was > 4 mM (inactive).
In the case of `CN1C(=O)C2CC=C(Cl)CC2C1=O` (stereo not given), the Kd is reported as > 4 mM (inactive).
In the case of `COc1cc([C@@H]2c3cc4c(cc3[C@H](OC(C)=O)[C@H]3COC(=O)[C@H]23)OCO4)cc(OC)c1OC`, the Kd is reported as > 4 mM (inactive).
With `Nc1nc(SCc2ccc3c(c2)OCO3)n[nH]1` the Kd was > 4 mM (inactive).
For `Cc1nc(-c2ccc(C(=O)O)s2)cs1`, the Kd was > 4 mM (inactive).
In the case of `O=C(O)c1cccnc1-c1nc2ccccc2s1`, the Kd is reported as > 4 mM (inactive).
In the case of `COc1ccc(-c2cc(=O)c3c(O)cc(O[C@@H]4O[C@H](CO[C@H]5O[C@H](C)[C@@H](O)[C@H](O)[C@@H]5O)[C@@H](O)[C@H](O)[C@H]4O)cc3o2)cc1O`, the Kd is reported as > 4 mM (inactive).
For `C=CCc1ccc(O)c(OC)c1`, the Kd was > 4 mM (inactive).
With `Cc1occc(=O)c1O` the Kd was > 4 mM (inactive).
In the case of `CCC(=O)Oc1ccc(N2C(=O)CCC2=O)cc1`, the Kd is reported as > 4 mM (inactive).
For `O=C(O)CCc1ccc2c(c1)OCO2`, the Kd was > 4 mM (inactive).
For `COC1=C(OC)C(=O)C(C/C=C(\C)CC/C=C(\C)CC/C=C(\C)CC/C=C(/C)CC/C=C(\C)CC/C=C(\C)CC/C=C(\C)CC/C=C(\C)CC/C=C(\C)CCC=C(C)C)=C(C)C1=O`, the Kd was > 4 mM (inactive).
With `CC(C)(C)P(=O)(O)c1ccccc1` the Kd was > 4 mM (inactive).
With `OCCNc1ccccn1` the Kd was > 4 mM (inactive).
For `O=C(Cc1cccs1)Nc1ccccn1`, the Kd was > 4 mM (inactive).
In the case of `O=C(NN1C(=O)C2C3C=CC(C3)C2C1=O)C1CC=CCC1` (stereo not given), the Kd is reported as > 4 mM (inactive).
With `CCNC(CC(=O)Nc1ccc(F)cc1)C(=O)O` (stereo not given) the Kd was > 4 mM (inactive).
For `CN(C)C(=O)Oc1ccc(-c2nnco2)cc1`, the Kd was > 4 mM (inactive).
For `CC12CCC(O)CC1CCC1C2[C@H](O)CC2(C)C(C3=CC(=O)OC3)CCC12O` (stereo not given in full), the Kd was > 4 mM (inactive).
For `CC(CCC(=O)O)[C@H]1CCC2C3CC[C@@H]4CCCC[C@]4(C)C3CC[C@@]21C` (stereo not given in full), the Kd was > 4 mM (inactive).
For `NC(=O)c1cccc(Cl)n1`, the Kd was > 4 mM (inactive).
For `N#CCSc1nc2ccccc2c(=O)n1-c1ccccc1`, the Kd was > 4 mM (inactive).
In the case of `Oc1ccccc1N=Cc1cccnc1`, the Kd is reported as > 4 mM (inactive).
For `CC(C)NC(=O)c1cc(-n2cnnc2)ccc1Cl`, the Kd was > 4 mM (inactive).
In the case of `O=C(O)C1CC(C2CCCCN2)CN2CCCCC12` (stereo not given), the Kd is reported as > 4 mM (inactive).
For `CCOC(=O)CSCC(=O)Nc1nccs1`, the Kd was > 4 mM (inactive).
In the case of `Nc1nc2ccc(S(N)(=O)=O)cc2s1`, the Kd is reported as > 4 mM (inactive).
`Cc1oc(-c2ccccc2)cc1C(N)=O` was tested, and the Kd was > 4 mM (inactive).
In the case of `CC(=O)N(c1ccccc1)C1C=CS(=O)(=O)C1` (stereo not given), the Kd is reported as > 4 mM (inactive).
With `CCOC(=O)CC1NCCNC1=O` (stereo not given) the Kd was > 4 mM (inactive).
In the case of `O=C(NC1CC1)c1ccccc1[N+](=O)[O-]`, the Kd is reported as > 4 mM (inactive).
`Cc1scc(C(=O)Nc2ccon2)c1-c1ccccc1` was tested, and the Kd was > 4 mM (inactive).
